# Key:
# Assay in all cases: Cysteine liganding, probe competition
# Type in all cases: binding
# [1] = target: T1, ACAA2 3-ketoacyl-CoA thiolase, mitochondrial (Homo sapiens, UniProt P42765)
# T1 construct: Cells were resuspended in cold PBS on ice and sonicated with a probe sonicator to achieve lysis; endogenous in cells
# T1 sequence (P42765 1-397): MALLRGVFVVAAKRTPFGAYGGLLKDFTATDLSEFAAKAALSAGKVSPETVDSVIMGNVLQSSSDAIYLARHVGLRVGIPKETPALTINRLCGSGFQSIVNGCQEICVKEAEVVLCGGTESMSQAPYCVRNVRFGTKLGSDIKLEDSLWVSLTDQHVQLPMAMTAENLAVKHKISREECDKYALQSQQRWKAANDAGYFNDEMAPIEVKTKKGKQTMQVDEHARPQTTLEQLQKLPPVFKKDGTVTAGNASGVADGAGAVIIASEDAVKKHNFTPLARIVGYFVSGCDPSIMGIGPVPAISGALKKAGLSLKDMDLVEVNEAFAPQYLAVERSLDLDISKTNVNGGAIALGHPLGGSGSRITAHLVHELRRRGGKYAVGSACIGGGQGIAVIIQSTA
# Method in brief: (§1)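 Steps: sonicate cells in cold PBS; treat 5 mg/ml lysate with compound (25° C, 1 hr); add desthiobiotin iodoacetamide probe from a 10 mM stock (25° C, 1 hr); precipitate, reduce, alkylate, digest with trypsin; capture labelled peptides on streptavidin for analysis.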
# [2] = target: T2, DDX60 Probable ATP-dependent RNA helicase DDX60 (Homo sapiens, UniProt Q8IY21)
# T2 construct: 200 μL of lysate containing 5 mg/ml proteome was treated with 2 μL of 100× compound stock; endogenous in cells
# T2 sequence (Q8IY21 whole entry): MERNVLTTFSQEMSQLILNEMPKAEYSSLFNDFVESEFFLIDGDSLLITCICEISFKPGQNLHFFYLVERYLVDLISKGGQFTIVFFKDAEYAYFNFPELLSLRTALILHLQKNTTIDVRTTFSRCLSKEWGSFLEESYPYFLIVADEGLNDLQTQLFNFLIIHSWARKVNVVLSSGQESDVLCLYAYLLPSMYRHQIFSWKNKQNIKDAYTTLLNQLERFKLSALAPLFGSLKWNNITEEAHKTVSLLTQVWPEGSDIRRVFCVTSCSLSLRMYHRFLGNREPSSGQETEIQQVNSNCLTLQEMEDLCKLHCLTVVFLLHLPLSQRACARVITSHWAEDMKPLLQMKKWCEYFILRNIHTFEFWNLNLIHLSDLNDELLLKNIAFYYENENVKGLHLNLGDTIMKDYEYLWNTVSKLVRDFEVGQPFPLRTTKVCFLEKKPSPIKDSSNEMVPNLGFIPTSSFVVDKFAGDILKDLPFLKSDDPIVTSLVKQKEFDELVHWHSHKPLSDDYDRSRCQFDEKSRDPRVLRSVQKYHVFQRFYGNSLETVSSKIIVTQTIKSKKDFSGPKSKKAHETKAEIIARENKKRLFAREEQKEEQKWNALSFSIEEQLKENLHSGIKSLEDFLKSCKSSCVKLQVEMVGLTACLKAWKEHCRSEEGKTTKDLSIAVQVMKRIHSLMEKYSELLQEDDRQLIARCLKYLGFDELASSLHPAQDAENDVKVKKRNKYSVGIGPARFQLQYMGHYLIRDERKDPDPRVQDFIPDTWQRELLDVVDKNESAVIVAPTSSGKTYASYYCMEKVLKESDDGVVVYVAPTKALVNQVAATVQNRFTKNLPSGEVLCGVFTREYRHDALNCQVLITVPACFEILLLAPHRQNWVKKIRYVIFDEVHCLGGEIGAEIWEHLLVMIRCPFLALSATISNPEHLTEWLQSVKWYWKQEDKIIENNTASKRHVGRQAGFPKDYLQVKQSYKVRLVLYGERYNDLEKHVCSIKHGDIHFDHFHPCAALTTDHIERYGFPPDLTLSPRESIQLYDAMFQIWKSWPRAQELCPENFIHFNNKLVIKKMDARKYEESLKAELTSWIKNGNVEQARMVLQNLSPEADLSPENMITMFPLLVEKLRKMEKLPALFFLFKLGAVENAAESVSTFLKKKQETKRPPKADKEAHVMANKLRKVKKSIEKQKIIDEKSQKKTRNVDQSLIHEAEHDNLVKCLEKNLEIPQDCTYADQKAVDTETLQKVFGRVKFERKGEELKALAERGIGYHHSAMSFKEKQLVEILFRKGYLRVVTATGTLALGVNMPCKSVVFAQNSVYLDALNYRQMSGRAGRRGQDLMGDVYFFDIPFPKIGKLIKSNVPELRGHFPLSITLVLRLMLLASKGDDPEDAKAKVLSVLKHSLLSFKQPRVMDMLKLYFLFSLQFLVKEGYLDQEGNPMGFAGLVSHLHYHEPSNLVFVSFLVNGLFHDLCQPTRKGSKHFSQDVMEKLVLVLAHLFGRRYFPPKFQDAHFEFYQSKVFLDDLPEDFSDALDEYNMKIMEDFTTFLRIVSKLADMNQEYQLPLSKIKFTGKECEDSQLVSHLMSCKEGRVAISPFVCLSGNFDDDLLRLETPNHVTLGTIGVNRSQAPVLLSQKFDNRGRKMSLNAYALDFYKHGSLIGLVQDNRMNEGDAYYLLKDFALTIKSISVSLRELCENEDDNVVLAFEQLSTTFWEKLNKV
# Method in brief: as §1
# [3] = target: T3, HMOX2 Heme oxygenase 2 (Homo sapiens, UniProt P30519); details: for Liganded: HMOX2 Res# 265, uniprot P30519
# T3 construct: Cells were resuspended in cold PBS on ice and sonicated with a probe sonicator to achieve lysis; endogenous in cells
# T3 sequence (P30519 1-316): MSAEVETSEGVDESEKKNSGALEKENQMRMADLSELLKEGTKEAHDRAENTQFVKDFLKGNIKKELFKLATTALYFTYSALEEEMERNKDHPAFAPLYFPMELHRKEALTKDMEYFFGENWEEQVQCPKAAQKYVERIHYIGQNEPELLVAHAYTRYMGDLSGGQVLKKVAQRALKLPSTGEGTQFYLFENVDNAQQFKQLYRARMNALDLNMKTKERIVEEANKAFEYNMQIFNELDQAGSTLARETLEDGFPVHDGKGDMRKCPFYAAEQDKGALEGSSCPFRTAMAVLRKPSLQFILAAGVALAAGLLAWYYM
# Method in brief: as §1
# [4] = target: T4, MT-ND5 NADH-ubiquinone oxidoreductase chain 5 (Homo sapiens, UniProt P03915); details: for Liganded: MT-ND5 Res# 518, uniprot P03915
# T4 construct: Cells were resuspended in cold PBS on ice and sonicated with a probe sonicator to achieve lysis; endogenous in cells
# T4 sequence (P03915 whole entry): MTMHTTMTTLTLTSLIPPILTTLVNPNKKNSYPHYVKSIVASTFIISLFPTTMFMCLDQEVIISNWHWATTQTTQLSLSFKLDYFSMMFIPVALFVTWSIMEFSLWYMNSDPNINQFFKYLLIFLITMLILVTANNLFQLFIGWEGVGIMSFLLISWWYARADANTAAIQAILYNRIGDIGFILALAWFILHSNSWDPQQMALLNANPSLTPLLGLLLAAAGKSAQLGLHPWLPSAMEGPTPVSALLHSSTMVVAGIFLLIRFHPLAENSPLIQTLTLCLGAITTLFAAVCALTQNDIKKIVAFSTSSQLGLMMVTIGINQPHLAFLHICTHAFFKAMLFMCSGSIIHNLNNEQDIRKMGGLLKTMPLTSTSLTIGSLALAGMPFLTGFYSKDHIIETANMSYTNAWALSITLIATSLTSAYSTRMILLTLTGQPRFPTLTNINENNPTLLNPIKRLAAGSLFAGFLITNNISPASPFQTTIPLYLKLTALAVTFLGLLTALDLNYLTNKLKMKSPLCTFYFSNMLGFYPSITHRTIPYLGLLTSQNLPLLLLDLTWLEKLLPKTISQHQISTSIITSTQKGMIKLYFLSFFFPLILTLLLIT
# Method in brief: as §1
SMILES,100 Max ([1]; uniprot P42765),100 ave ([1]; uniprot P42765),500 Max ([1]; uniprot P42765),500 ave ([1]; uniprot P42765),100 Max ([2]; uniprot Q8IY21),100 ave ([2]; uniprot Q8IY21),500 Max ([2]; uniprot Q8IY21),500 ave ([2]; uniprot Q8IY21),Liganded [3],100 Max ([3]; uniprot P30519),100 ave ([3]; uniprot P30519),500 ave ([3]; uniprot P30519),"500 Max ([3]; uniprot P30519, in % (unit assumed))",Liganded [4],100 ave ([4]; uniprot P03915),"100 Max ([4]; uniprot P03915, in % (unit assumed))","Liganded ([1]; ACAA2 Res# 382, uniprot P42765)","Liganded ([2]; DDX60 Res# 1051, uniprot Q8IY21)"
O=C(CCl)Nc1cc(C(F)(F)F)cc(C(F)(F)F)c1 [KBO3],3.45,3.45,−0.69,−0.69,29.56,19.7,73.07,73.07,YES,93.81,81.435,88.6,98.54,YES,83.61,83.61,,
COc1ccc2c(c1)CCCN2C(=O)CCl [KB02],,,,,,,,,YES,,,,,YES,,,YES,YES

# — patent publication US20200239530A1, “COMPOUNDS AND METHODS OF MODULATING PROTEIN DEGRADATION” (Vividion Therapeutics, Inc., priority 2017, published 2020)
